Assay results reported in patent publication US20260001844A1, “COMPOUNDS AND METHODS FOR THE TREATMENT AND PREVENTION OF HIV” (priority 2022, published 2026).
Read-outs that look alike come from different tables or passages of the source.

How the values were obtained:
[1] = tested on: HIV-1CH58TF infected primary CD4+ T cells; test: ADCC FACS-based assay with HIV+ plasma, HIV-1CH58TF infected cells; type: cell-based, human; conditions: for Susceptibility of HIV-1CH58TF infected cells to ADCC mediated by HIV+ plasma (in words): 50 μM compound, plasma 1:1000; for % ADCC (CH58): Table 1, approximate values, HIV+ plasma 1/1,000, compound 50 μM
[2] = tested on: HIV-1AD8 infected primary CD4+ T cells; test: ADCC FACS-based assay with HIV+ plasma, HIV-1AD8 infected cells; type: cell-based, human; conditions: 50 μM compound; plasma 1:1000
[3] = tested on: HIV-1JRFL infected primary CD4+ T cells; test: Anti-CoRBS 17b mAb binding to infected cells (flow cytometry), HIV-1JRFL; type: cell-based, human; conditions: 50 μM compound; p24+ cells
Protocol: (§1) FIG. 4. Anti-CoRBS Ab binding. Anti-CoRBS Ab-17b binding to (A) HIV-1CH58TF, (B) HIV-1JRFL (C) or HIV-1AD8 infected primary CD4+ T cells was done in the presence of 50 μM of the indicated CD4mcs or the same volume of vehicle (DMSO). The median fluorescence intensity (MFI) of 17b binding is reported for the productively-infected cell (p24+) population. Data shown are the mean±SD of at least three independent experiments. Statistical significance was evaluated using an un-paired t test (*, p<0.05; **, p<0.01; ***, p<0.001; ****, p<0.0001; ns, not significant).
The ability of the compounds to expose the co-receptor binding site (CoRBS) were tested by measuring binding of the anti-CoRBS 17b mAb to infected cells. Briefly, primary CD4+ T cells were infected with HIV-1CH58TF, HIV-1JRFL or HIV-1AD8. Two days later, infected cells were co-incubated with 50 μM (+)-BNM-III-170, (S)-MCG-IV-210, TFH-070-A6, TFH-I-116-D1, ZXC-I-090, ZXC-I-092, DL-I-101 (ZXC-I-257), and DL-I-102 (ZXC-I-258) or the same volume of DMSO, and the 17b interaction was measured by flow cytometry after intracellular anti-p24 to identify the infected cell population. […] Defined by the sensitivity to anti-body-mediated neutralization (tier-1, 2 and 3), Tier-2 viruses (HIV-1JRFL and HIV-1AD8) are representative of biologically relevant circulating HIV-1 strains which are moderately neutralized by neutralizing antibodies. Weak neutralizing antibodies, or first generation CD4mc, prevent the infection of viruses from tier-1 but not those from tier-2 or tier-3. […] A similar phenotype was observed when using HIV-1AD8 infected cells (FIG. 4C).
The anti-CoRBS 17b mAb was used alone or in combination with different com-pounds for cell-surface staining. Plasma from different HIV-infected donors were collected, heat-inactivated and conserved. Alexa Fluor 647 conjugated Goat anti-human antibodies (Invitrogen, Waltham, MA, USA) were used as secondary Abs.
Cell-surface staining was performed. Primary CD4 T cells were isolated from healthy donors and infected with HIV-1CH58TF, HIV-1JRFL or HIV-1AD8. Binding of HIV-1-infected cells by plasma (1:1000 dilution) or 17b mAb (5 μg/mL) in the presence or absence of 50 μM compounds was performed 48 h after infection. Cells were then incubated at 37° C. for 1 h followed by adding anti-human Alexa Fluor-647 (Invitrogen) secondary Abs for 20 min. Cells were then stained intracellularly for HIV-1 p24, using the Cytofix/Cytoperm Fixation/Permeabilization Kit (BD Biosciences, Mississauga, ON, Canada) and the fluorescent anti-p24 mAb (PE-conjugated anti-p24, clone KC57; Beckman Coulter/Immunotech). The percentage of infected cells (p24+ cells) was determined by gating the live cell population on the basis of the Aqua-Vivid viability dye staining. Samples were analyzed on an LSRII cytometer (BD Biosciences), and data analysis was performed using FlowJo vX.0.7 (Tree Star, Ashland, OR, USA).

[4] = tested on: HIV-1AD8 infected primary CD4+ T cells; test: Cell-surface staining with HIV+ plasma, HIV-1AD8 infected cells; conditions: 50 μM compound; plasma 1:1000
VSV-G pseudovirus = test: microbe, parasite or virus in culture; type: cell-based; conditions: read-out: IC50 VSV-G pseudovirus
[5] = tested on: HIV-1JRFL infected primary CD4+ T cells; test: ADCC FACS-based assay with HIV+ plasma, HIV-1JRFL infected cells; type: cell-based, human; conditions: for % ADCC (JR-FL): Table 1, approximate values
[6] = tested on: HIV-1JRFL infected primary CD4+ T cells; test: Cell-surface staining with HIV+ plasma, HIV-1JRFL infected cells; type: cell-based, human; conditions: 50 μM compound; plasma 1:1000
HIV-1AD8 = test: Viral neutralization in TZM-bl cells (luciferase), HIV-1AD8; type: cell-based; conditions: read-out: IC50 HIV-1AD8
HIV-1CH58TF = test: Viral neutralization in TZM-bl cells (luciferase), HIV-1CH58TF; type: cell-based
HIV-1JRFL = test: Viral neutralization in TZM-bl cells (luciferase), HIV-1JRFL; type: cell-based
[7] = tested on: HIV-1CH58TF infected primary CD4+ T cells; test: Cell-surface staining with HIV+ plasma, HIV-1CH58TF infected cells; type: cell-based, human; conditions: 50 μM compound; plasma 1:1000
[8] = tested on: HIV-1CH58TF infected primary CD4+ T cells; test: Anti-CoRBS 17b mAb binding to infected cells (flow cytometry), HIV-1CH58TF; type: cell-based, human; conditions: 50 μM compound; p24+ cells
Protocol: as §1
The ability of the compounds to expose the co-receptor binding site (CoRBS) were tested by measuring binding of the anti-CoRBS 17b mAb to infected cells. […] Two days later, infected cells were co-incubated with 50 μM (+)-BNM-III-170, (S)-MCG-IV-210, TFH-070-A6, TFH-I-116-D1, ZXC-I-090, ZXC-I-092, DL-I-101 (ZXC-I-257), and DL-I-102 (ZXC-I-258) or the same volume of DMSO, and the 17b interaction was measured by flow cytometry after intracellular anti-p24 to identify the infected cell population. […]
Cell-surface staining was performed. […] The percentage of infected cells (p24+ cells) was determined by gating the live cell population on the basis of the Aqua-Vivid viability dye staining. Samples were analyzed on an LSRII cytometer (BD Biosciences), and data analysis was performed using FlowJo vX.0.7 (Tree Star, Ashland, OR, USA).

[9] = Human immunodeficiency virus 1, TZM-bl
[10] = Human immunodeficiency virus 1, TZM-bl, read-out: IC50 (CH58)
[11] = Human immunodeficiency virus 1, TZM-bl, read-out: IC50 (JR-FL)
[12] = Table 2, average ± SD of at least three independent experiments, TZM-bl cells, read-out: IC50 HIV-1CH58TF
[13] = Human immunodeficiency virus 1, TZM-bl, read-out: IC50 HIV-1JRFL

| Structure (SMILES) | Susceptibility of HIV-1CH58TF infected cells to ADCC mediated by HIV+ plasma (in words) [1] | Exposure of the co-receptor binding site (17b mAb binding), HIV-1JRFL infected cells [3] | HIV+ plasma binding to HIV-1AD8 infected cells [4] | IC50 (VSV-G pseudovirus; Pseudovirus, TZM-bl) [µM] | % ADCC (CH58) [1] [%] | % ADCC (JR-FL) [5] [%] | IC50 (HIV-1CH58TF; [10]) [µM] | IC50 (HIV-1JRFL; [11]) [µM] | IC50 (HIV-1JRFL; [13]) [µM] | further results |
| --- | --- | --- | --- | --- | --- | --- | --- | --- | --- | --- |
| NCC(=O)N1CCN(C(=O)N2C[C@H](CO)C[C@H](C(=O)Nc3ccc(Cl)c(F)c3)C2)CC1 (racemic) [DL-I-101, (3S,5R)-N-(4-chloro-3-fluorophenyl)-1-(4-glycylpiperazine-1-carbonyl)-5-(hydroxymethyl)piperidine-3-carboxamide] | also the case | successfully exposed the CoRBS | did | > 100 |  |  |  |  |  | ADCC against HIV-1AD8 infected cells (in words) [2]: translated into ADCC |
| O=C(O)CN1CCN(C(=O)N2C[C@H](CO)C[C@H](C(=O)Nc3ccc(Cl)c(F)c3)C2)CC1 (racemic) [DL-I-102, 2-(4-((3S,5R)-3-((4-chloro-3-fluorophenyl)carbamoyl)-5-(hydroxymethyl)piperidine-1-carbonyl)piperazin-1-yl)acetic acid] | also the case | successfully exposed the CoRBS |  | > 100 |  |  |  |  |  |  |
| C[C@@H]1CN(C(=O)N2CCC[C@H](C(=O)Nc3ccc(Cl)c(F)c3)C2)C[C@H](C)N1C (stereo in doubt) [TFH-I-116-D1] | also the case | successfully exposed the CoRBS | did | > 100 | 5 | 3 | < 1 | 20 |  | ADCC against HIV-1JRFL infected cells compared to (S)-MCG-IV-210 (in words) ([5]; 50 μM compound, plasma 1:1000): not translated into enhanced ADCC; Recognition of HIV-1JRFL infected cells by antibodies from PLWH (HIV+ plasma) [6]: recognized infected cells; ADCC against HIV-1AD8 infected cells (in words) [2]: translated into ADCC; IC50 (HIV-1AD8; [9]): 4.8 ± 1.7 µM; IC50 (HIV-1CH58TF; Human immunodeficiency virus 1, TZM-bl, read-out: IC50 HIV-1CH58TF): 0.065 ± 0.01 µM; IC50 (HIV-1JRFL; Human immunodeficiency virus 1, TZM-bl, read-out: IC50, neutralization of HIV-1JRFL (text, unit printed M)): 43.8 µM |
| CN1CCN(C(=O)N2C[C@H](CN)C[C@H](C(=O)Nc3ccc(Cl)c(F)c3)C2)CC1 (stereo in doubt) [ZXC-I-090] | also the case |  |  | > 100 | ~3 | ~2 | ~50 | 18 |  |  |
| C[C@@H]1CN(C(=O)N2C[C@H](CN)C[C@H](C(=O)Nc3ccc(Cl)c(F)c3)C2)C[C@H](C)N1C (stereo in doubt) [ZXC-I-092] | also the case | successfully exposed the CoRBS |  | > 100 | ~3 | ~2 | ~50 | 28 | 54.2 ± 22.8 | IC50 (HIV-1CH58TF; [12]): 0.75 ± 0.12 µM |
| CNCc1ccc2c(c1)C[C@H](CN=C(N)N)[C@H]2NC(=O)C(=O)Nc1ccc(Cl)c(F)c1.O=C(O)C(F)(F)F.O=C(O)C(F)(F)F [BNM-III-170, reference compound] | enhanced |  |  |  |  |  |  |  |  | IC50 (HIV-1AD8; Table 2, average ± SD of at least three independent experiments, TZM-bl cells): 3.75 ± 1.3 µM; Recognition of HIV-1CH58TF infected cells by HIV+ plasma [7]: enhanced the recognition; IC50 (HIV-1CH58TF; [12]): 0.033 ± 0.01 µM; IC50 (HIV-1JRFL; TZM-bl neutralization assay, read-out: IC50, neutralization of HIV-1JRFL): 13.5 µM; IC50 (VSV-G pseudovirus): > 100 µM |
| NCCNC(=O)N1CCC[C@H](C(=O)Nc2ccc(Cl)c(F)c2)C1 [MCG-IV-210, reference compound] | enhanced |  | did not promote HIV+ plasma binding | > 100 |  |  |  |  | > 100 | IC50 (HIV-1AD8; [9]): > 100 µM; Exposure of the co-receptor binding site (17b mAb binding), HIV-1CH58 infected cells [8]: exposed the CoRBS; Recognition of HIV-1CH58TF infected cells by HIV+ plasma [7]: enhanced the recognition; Inhibition of viral infection by HIV-1JRFL (in words) (HIV-1JRFL; TZM-bl neutralization assay): unable to inhibit viral infection |
| CN1CCN(C(=O)N2CCC[C@H](C(=O)Nc3ccc(Cl)c(F)c3)C2)CC1 [TFH-I-070-A6, (S)-4-(3-((4-chloro-3-fluorophenyl)carbamoyl)piperidine-1-carbonyl)-1-methylpiperazin-1-ium, 2,2,2-trifluoro-acetate] | also the case | successfully exposed the CoRBS | did | > 100 | 5 | 3 | 30 | 80 | 67.2 ± 30 |  |
